In general, IC50 refers to the concentration needed to halve the response being measured. A high value points to weaker potency in that assay. Broadly, the inhibition is the drop in the measured response relative to a control, in per cent. A lower inhibition goes with little suppression.

One assay has as its target T1, KRas^G12D (Homo sapiens, UniProt P01116, G12D).
T1 construct: Biotinylated KRas (corresponding to amino acids 1-169, produced at Accelegan Inc.); biotin (biotinylated); purchased Accelegan Inc
Kind of assay: KRas binding assay (TR-FRET tracer displacement), KRas G12D. A general note: In TR-FRET formats the signal depends on donor and acceptor labels being close together.

A further assay deals with T2, KRas^G12R (Homo sapiens, UniProt P01116, G12R).
T2 construct: Biotinylated KRas (corresponding to amino acids 1-169, produced at Accelegan Inc.); biotin (biotinylated); purchased Accelegan Inc
T2 sequence (P01116 1-169 isoform P01116-2 G12R): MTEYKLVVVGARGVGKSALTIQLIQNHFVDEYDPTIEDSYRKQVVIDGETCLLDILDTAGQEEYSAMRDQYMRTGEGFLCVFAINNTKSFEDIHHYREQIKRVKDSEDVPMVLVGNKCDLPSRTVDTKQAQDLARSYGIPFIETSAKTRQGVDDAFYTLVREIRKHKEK
Kind of assay: KRas binding assay (TR-FRET tracer displacement), KRas G12R.

A further assay concerns the target T3, KRas^G12V (Homo sapiens, UniProt P01116, G12V).
T3 construct: Biotinylated KRas (corresponding to amino acids 1-169, produced at Accelegan Inc.); biotin (biotinylated); purchased Accelegan Inc
Kind of assay: KRas binding assay (TR-FRET tracer displacement), KRas G12V.

Assay [1] relates to KRas-mediated phosphorylation of ERK in MKN1 cells. Nature of the assay: Inhibition of KRas-mediated phosphorylation of ERK (Cisbio HTRF pERK), MKN1 cells. The format is cell-based. Particulars: Homo sapiens, MKN-1. The essentials:
(§1)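 Day 1 seeding: 6,000 cells per well, RPMI/10% FBS, left overnight at 37° C. with 5% CO2. Plates then stood covered for 4 h at room temperature prior to HTRF detection of pERK.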

For assay [2], the system named is KRas-mediated phosphorylation of ERK in PSN1 cells. Kind of assay: Inhibition of KRas-mediated phosphorylation of ERK (Cisbio HTRF pERK), PSN1 cells. The format is cell-based. The note with it: Homo sapiens. The essentials: as §1
Assay [3] concerns KRas-mediated phosphorylation of ERK in AsPC-1 cells. Kind of assay: Inhibition of KRas-mediated phosphorylation of ERK (Cisbio HTRF pERK), AsPC-1 cells. The format is cell-based. The note with it: Homo sapiens; for IC50: ASPC1, AsPC-1 cells, HTRF pERK. The essentials: (§2)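 Using 6,000 cells per well, compounds are applied for 3 hrs and cells then lysed at 4° C with shaking for 40 mins. Phospho-ERK is measured by HTRF after 2 hrs of lysate incubation with the d2/Cryptate antibody mixture.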

In assay [4] the test system is KRas-mediated phosphorylation of ERK in H727 cells. Nature of the assay: Inhibition of KRas-mediated phosphorylation of ERK (Cisbio HTRF pERK), H727 cells. The note with it: Homo sapiens; for IC50: NCI-H727, H727 cells, HTRF pERK. The format is cell-based. Summed up: as §2
Assay [5] relates to KRas-mediated phosphorylation of ERK in A549 cells. Kind of assay: Inhibition of KRas-mediated phosphorylation of ERK (Cisbio HTRF pERK), A549 cells. It is filed as cell-based. Particulars: Homo sapiens; for IC50: HTRF pERK. Summed up:
(§3)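 Cells were seeded at 6,000 per well and treated for 3 hrs with compound in a 10-dose, 3-fold series from 10 uM (0.8% final DMSO), with 0.2 uM Trametinib as Min control. Lysates made at 4° C over 40 mins were incubated 2 hrs at room temperature with d2- and Cryptate-labelled antibodies, then read by HTRF.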

For assay [6], the system named is KRas-mediated phosphorylation of ERK in H460 cells. Nature of the assay: Inhibition of KRas-mediated phosphorylation of ERK (Cisbio HTRF pERK), H460 cells. The format is cell-based. The note with it: Homo sapiens; for IC50: NCI-H460, HTRF pERK. Summed up: as §2
Assay [7] deals with KRas-mediated phosphorylation of ERK in HCT116 cells. Kind of assay: Inhibition of KRas-mediated phosphorylation of ERK (Cisbio HTRF pERK), HCT116 cells. It is filed as cell-based. Particulars: Homo sapiens; for IC50: HCT-116, HTRF pERK. The essentials:
as §3

In assay [8] the test system is KRas-mediated phosphorylation of ERK in H358 cells. Nature of the assay: Inhibition of KRas-mediated phosphorylation of ERK (Cisbio HTRF pERK), H358 cells. The format is cell-based. Particulars: Homo sapiens; for IC50: NCI-H358, HTRF pERK. The essentials:
as §2

T3 sequence (P01116 1-169 isoform P01116-2 G12V): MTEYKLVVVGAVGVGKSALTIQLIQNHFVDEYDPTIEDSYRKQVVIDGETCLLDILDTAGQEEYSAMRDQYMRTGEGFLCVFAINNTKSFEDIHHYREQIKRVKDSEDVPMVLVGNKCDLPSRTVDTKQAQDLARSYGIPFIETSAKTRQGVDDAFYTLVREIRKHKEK
T1 sequence (P01116 1-169 isoform P01116-2 G12D): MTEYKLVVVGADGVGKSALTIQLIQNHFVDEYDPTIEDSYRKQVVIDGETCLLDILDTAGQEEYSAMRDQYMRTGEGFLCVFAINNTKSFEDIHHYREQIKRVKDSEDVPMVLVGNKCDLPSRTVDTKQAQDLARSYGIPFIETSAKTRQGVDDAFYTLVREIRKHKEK

For `CCc1c(F)ccc2cc(O)cc(-c3ncc4c(N5CCOCC6(CNC(=O)N6)C5)nc(OC[C@@]56CCCN5C[C@H](F)C6)nc4c3F)c12` (stereo partly drawn) [Example 898, 10-(7-(8-ethyl-7-fluoro-3-hydroxynaphthalen-1-yl)-8-fluoro-2-(((2R,7aS)-2-fluorotetrahydro-1H-pyrrolizin-7a(5H)-yl)methoxy)pyrido[4,3-d]pyrimidin-4-yl)-7-oxa-1,3,10-triazaspiro[4.6]undecan-2-one], the IC50 at KRas^G12D was less than 2 nM; at KRas^G12R it was less than 2 nM; on KRas^G12V it was less than 2 nM; in assay [1] it was 196 nM; in assay [2] it was greater than 10000 nM; in assay [3] it was 250 nM. In addition, the IC50 was determined as 836 nM in [4]; 355 nM in assay [5]; 252 nM in assay [6]; 1010 nM in [7]; 56 nM in assay [8].

Consider `CCc1c(F)ccc2cc(O)cc(-c3ncc4c(N5CC6CCC(C5)C6CC(=O)N(C)C)nc(OC[C@@]56CCCN5C[C@H](F)C6)nc4c3F)c12` (stereo partly drawn) [Example 860, 2-((1R,5S,8S)-3-(7-(8-ethyl-7-fluoro-3-hydroxynaphthalen-1-yl)-8-fluoro-2-(((2R,7aS)-2-fluorotetrahydro-1H-pyrrolizin-7a(5H)-yl)methoxy)pyrido[4,3-d]pyrimidin-4-yl)-3-azabicyclo[3.2.1]octan-8-yl)-N,N-dimethylacetamide], for which the IC50 at KRas^G12D was 91 nM; at KRas^G12R, 68 nM; on KRas^G12V, 13 nM; in assay [1], 7 nM; in [2] it was greater than 10000 nM; in [3], 2600 nM. Further, the concentration for half-maximal inhibition (IC50) in assay [4] was found to be 1120 nM; in assay [5], 2760 nM; in assay [6] it was 395 nM; in [7] it was 600 nM; in [8], 455 nM.

In the case of `CCc1c(F)ccc2cc(O)cc(-c3ncc4c(N5CC6CCC(C5)C6CC(=O)NC)nc(OC[C@@]56CCCN5C[C@H](F)C6)nc4c3F)c12` (stereo partly drawn) [Example 863, 2-((1R,5S,8S)-3-(7-(8-ethyl-7-fluoro-3-hydroxynaphthalen-1-yl)-8-fluoro-2-(((2R,7aS)-2-fluorotetrahydro-1H-pyrrolizin-7a(5H)-yl)methoxy)pyrido[4,3-d]pyrimidin-4-yl)-3-azabicyclo[3.2.1]octan-8-yl)-N-methylacetamide], the IC50 on KRas^G12D was 145 nM; on KRas^G12R, 34 nM; on KRas^G12V, 32 nM; in assay [1], 208 nM; in [2], greater than 10000 nM; in assay [3], greater than 10000 nM. The IC50 is 4000 nM in assay [4]; greater than 10000 nM in assay [5]; 1990 nM in assay [6]; 3890 nM in [7]; 1360 nM in assay [8].

For the compound `CCc1c(F)ccc2cc(O)cc(-c3ncc4c(N5CC6CCC(COC(=O)N(C)C)(C6)C5)nc(OC[C@@]56CCCN5C[C@H](F)C6)nc4c3F)c12` (stereo partly drawn) [Example 892, (3-(7-(8-ethyl-7-fluoro-3-hydroxynaphthalen-1-yl)-8-fluoro-2-(((2R,7aS)-2-fluorotetrahydro-1H-pyrrolizin-7a(5H)-yl)methoxy)pyrido[4,3-d]pyrimidin-4-yl)-3-azabicyclo[3.2.1]octan-1-yl)methyl dimethylcarbamate], the IC50 at KRas^G12D was 120 nM; at KRas^G12R, 26 nM; on KRas^G12V, 26 nM; in assay [1] it was 174 nM; in assay [2] it was greater than 10000 nM; in assay [3], 2180 nM. For the same compound, the IC50 in assay [4] is 1630 nM; in assay [5], 2140 nM; in assay [6], 382 nM; in [7], 992 nM; in [8], 960 nM.

For `CCc1c(F)ccc2cc(O)cc(-c3ncc4c(N5CCC[C@@](C)(O)C5)nc(OC[C@]56CCCN5[C@H](CNS(=O)(=O)N(C)C)CC6)nc4c3F)c12` [Example 720, N,N-dimethyl-(((3S,7aR)-7a-(((7-(8-ethyl-7-fluoro-3-hydroxynaphthalen-1-yl)-8-fluoro-4-((R)-3-hydroxy-3-methylpiperidin-1-yl)pyrido[4,3-d]pyrimidin-2-yl)oxy)methyl)hexahydro-1H-pyrrolizin-3-yl)methyl)aminosulfonamide], the IC50 on KRas^G12D was less than 2 nM; at KRas^G12R it was less than 2 nM; on KRas^G12V, less than 2 nM; in assay [1], 6 nM; in assay [2], 1760 nM; in assay [3], 19 nM. This compound also came in with an IC50 in assay [4] of 47 nM. Besides, the inhibition at 0.1 µM in assay [3] (ASPC1, 3 h, single point, 100 nM compound, 3 hrs, AsPC-1 cells) was 70%; in assay [4] (NCI-H727, 3 h, single point, 100 nM compound, 3 hrs, H727 cells), 43%; in assay [5] (A549, 3 h, single point, 100 nM compound, 3 hrs) it was 64%; in assay [6] (NCI-H460, 3 h, single point, 100 nM compound, 3 hrs), 80%; in assay [7] (HCT-116, 3 h, single point, 100 nM compound, 3 hrs), 51%; in assay [8] (NCI-H358, 3 h, single point, 100 nM compound, 3 hrs), 85%.

As to `CCc1c(F)ccc2cc(O)cc(-c3ncc4c(N5CCOC[C@]6(CCO6)C5)nc(OC[C@@]56CCCN5C[C@H](F)C6)nc4c3F)c12` [Example 837, 5-ethyl-6-fluoro-4-(8-fluoro-2-(((2R,7aS)-2-fluorotetrahydro-1H-pyrrolizin-7a(5H)-yl)methoxy)-4-((S)-1,6-dioxa-9-azaspiro[3.6]decan-9-yl)pyrido[4,3-d]pyrimidin-7-yl)naphthalen-2-ol], the IC50 on KRas^G12D was less than 2 nM; on KRas^G12R, less than 2 nM; on KRas^G12V it was less than 2 nM; in assay [1] it was 3 nM; in assay [2] it was 2990 nM; in assay [3], 4 nM. The IC50 in assay [4] was 23 nM; in [5], 11 nM; in assay [6] it was 14 nM; in assay [7], 45 nM; in assay [8] it was 6 nM.

As for `CCc1c(F)ccc2cc(O)cc(-c3ncc4c(N5CC6CCC(COC)(C6)C5)nc(OC[C@@]56CCCN5C[C@H](F)C6)nc4c3F)c12` (stereo partly drawn) [Example 891, 5-ethyl-6-fluoro-4-(8-fluoro-2-(((2R,7aS)-2-fluorotetrahydro-1H-pyrrolizin-7a(5H)-yl)methoxy)-4-(1-(methoxymethyl)-3-azabicyclo[3.2.1]octan-3-yl)pyrido[4,3-d]pyrimidin-7-yl)naphthalen-2-ol], the IC50 is 22 nM on KRas^G12D; 9 nM on KRas^G12R; 6 nM on KRas^G12V; 73 nM in assay [1]; greater than 10000 nM in assay [2]; 621 nM in assay [3]. Besides, the IC50 is 295 nM in [4]; 658 nM in assay [5]; 150 nM in assay [6]; 568 nM in assay [7]; 382 nM in assay [8].

Regarding `CCc1c(F)ccc2cc(O)cc(-c3ncc4c(N5CCC[C@@](C)(O)C5)nc(OC[C@@]56CCCN5[C@H](COCC5CC5)CC6)nc4c3F)c12` [Example 870, (R)-1-(2-(((3S,7aS)-3-((cyclopropylmethoxy)methyl)tetrahydro-1H-pyrrolizin-7a(5H)-yl)methoxy)-7-(8-ethyl-7-fluoro-3-hydroxynaphthalen-1-yl)-8-fluoropyrido[4,3-d]pyrimidin-4-yl)-3-methylpiperidin-3-ol], the IC50 was less than 2 nM on KRas^G12D; less than 2 nM at KRas^G12R; less than 2 nM at KRas^G12V; 18 nM in assay [1]; 1300 nM in assay [2]; 51 nM in [3]. Besides, the IC50 was found to be 98 nM in assay [4]; 66 nM in assay [5]; 25 nM in assay [6]; 49 nM in assay [7]; 10 nM in [8].

Values taken from patent US20260015350A1, “AZAQUINAZOLINE PAN-KRAS INHIBITORS” (Mirati Therapeutics, Inc., priority 2022, published 2026).
